Source: patent US9656990B2, “Cathepsin cysteine protease inhibitors” (Merck Sharp & Dohme Corp., priority 2014, dated 2017)

Columns and labels:
[1] = target: T1, human cathepsin F (Homo sapiens, UniProt Q9UBX1); test: Cathepsin F Assay; format: biochemical; settings: IP from dose response curve; Z-Phe-Arg-AMC substrate, pH 5.5; read-out: hCat F (IP (nM))
T1 sequence (Q9UBX1 271-484): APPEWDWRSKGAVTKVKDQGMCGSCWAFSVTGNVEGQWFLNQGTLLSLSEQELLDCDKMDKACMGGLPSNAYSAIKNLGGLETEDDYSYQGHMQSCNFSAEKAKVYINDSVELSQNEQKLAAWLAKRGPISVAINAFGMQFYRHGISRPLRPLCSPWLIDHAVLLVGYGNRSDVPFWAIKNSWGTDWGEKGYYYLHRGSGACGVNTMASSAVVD
Experimental: Serial dilutions (1/3) from 500 μM down to 0.025 μM of test compounds were prepared in dimethyl sulfoxide (DMSO). Then 0.5 μL of DMSO from each dilution were added to 18.75 μL of assay buffer (MES, 50 mM (pH 5.5); EDTA, 2.5 mM; DTT, 2.5 mM and 10% DMSO) containing human cathepsin F (10 nM) in assay buffer solution. The assay solutions were mixed for 5-10 seconds on a shaker plate and incubated for 15 minutes at room temperature. Z-Phe-Arg-AMC (8 μM) in 6.25 μL of assay buffer was added to the assay solutions. Hydrolysis of the coumarin leaving group (AMC) was followed by spectrofluorometry (Exλ=360 nm; Emλ=460 nm) for 20 minutes. Percent of inhibition were calculated by fitting experimental values to standard mathematical model for dose response curve.

[2] = target: human cathepsin K (UniProt P43236, Y175D/V274L, species not given); test: Cathepsin K Assay; format: biochemical; settings: IP from dose response curve; Z-Leu-Arg-AMC substrate, pH 5.5; read-out: hrbCat K (IP (nM))

Row | Structure (SMILES) | IC50 [1] | IC50 [2]
1 | N#Cc1ccccc1-n1cc(-c2ccc(N3CCS(=O)(=O)CC3)cc2)c([C@@H]2CCCC[C@H]2C(=O)NC2(C#N)CC2)n1 [Example 91, (1R,2R)-N-(1-cyanocyclopropyl)-2-(1-(2-cyanophenyl)-4-(4-(1,1-dioxidothiomorpholino)phen-yl)-1H-pyrazol-3-yl)cyclohexanecarboxamide] | 1020 nM | 1.02 nM
2 | N#CC1(NC(=O)[C@@H]2CCCC[C@H]2c2nn(-c3ccc(C(F)(F)F)cc3)cc2-c2ccc(N3CCS(=O)(=O)CC3)cc2)CC1 [Example 121, (1R,2R)-N-(1-cyanocyclopropyl)-2-(4-(4-(1,1-dioxidothiomorpholino)phen-yl)-1-(4-(trifluoromethyl)phenyl)-1H-pyrazol-3-yl)cyclohexanecarboxamide] | 649 nM | 3.08 nM
3 | N#CC1(F)CCN(c2ccc(-c3cn(-c4ccc(F)cc4)nc3[C@@H]3CCCC[C@H]3C(=O)NC3(C#N)CC3)cc2)CC1 [Example 115, (1R,2R)-2-(4-(4-(4-cyano-4-fluoropiperidin-1-yl)phenyl)-1-(4-fluorophenyl)-1H-pyrazol-3-yl)-N-(1-cyanocyclopropyl)cyclohex-anecarboxamide] | 804 nM | 6.62 nM
4 | N#CC1(NC(=O)[C@@H]2CCCC[C@H]2c2nn(-c3ncc(F)cc3F)cc2-c2ccc(N3CCS(=O)(=O)CC3)cc2)CC1 [Example 148, (1R,2R)-N-(1-cyanocyclopropyl)-2-(1-(3,5-difluoropyridin-2-yl)-4-(4-(1,1-dioxidothiomorpholino)phen-yl)-1H-pyrazol-3-yl)cyclohexanecarboxamide] | 502 nM | 1.01 nM
5 | Cc1c(-c2ccc(N3CCS(=O)(=O)CC3)cc2)c([C@@H]2CCCC[C@H]2C(=O)NC2(C#N)CC2)nn1-c1ccc(F)cc1 [Example 139, (1R,2R)-N-(1-cyanocyclopropyl)-2-(4-(4-(1,1-dioxidothiomorpholino)phen-yl)-1-(4-fluorophenyl)-5-methyl-1H-pyrazol-3-yl)cyclohexanecarboxamide] | 649 nM | 7.48 nM
6 | N#CC1(NC(=O)[C@@H]2CCCC[C@H]2c2nn(-c3cccc(C(F)(F)F)c3)cc2-c2ccc(N3CCS(=O)(=O)CC3)cc2)CC1 [Example 124, (1R,2R)-N-(1-cyanocyclopropyl)-2-(4-(4-(1,1-dioxidothiomorpholino)phen-yl)-1-(3-(trifluoromethyl)phenyl)-1H-pyrazol-3-yl)cyclohexanecarboxamide] | 588 nM | 1.58 nM
7 | N#CCNC(=O)[C@@H]1CC(F)(F)CC[C@H]1c1nn(-c2ccc(F)cc2)cc1-c1ccc(N2CCS(=O)(=O)CC2)cc1 [Example 81, (1R,2R)-N-(cyanomethyl)-2-(4-(4-(1,1-dioxidothiomorpholino)phen-yl)-1-(4-fluorophenyl)-1H-pyrazol-3-yl)-5,5-difluorocyclohexanecarbox-amide] | 11 nM | 0.37 nM
8 | COc1ccccc1-n1cc(-c2ccc(N3CCS(=O)(=O)CC3)cc2)c([C@@H]2CCCC[C@H]2C(=O)NC2(C#N)CC2)n1 [Example 92, (1R,2R)-N-(1-cyanocyclopropyl)-2-(4-(4-(1,1-dioxidothiomorpholino)phen-yl)-1-(2-methoxyphenyl)-1H-pyrazol-3-yl)cyclohexanecarboxamide] | 484 nM | 0.95 nM
9 | N#CC1(NC(=O)[C@@H]2CCCC[C@H]2c2nn(-c3cccc(Cl)c3)cc2-c2ccc(N3CCS(=O)(=O)CC3)cc2)CC1 [Example 99, (1R,2R)-2-(1-(3-chlorophenyl)-4-(4-(1,1-dioxidothiomorpholino)phen-yl)-1H-pyrazol-3-yl)-N-(1-cyanocyclopropyl)cyclohex-anecarboxamide] | 379 nM | 0.48 nM
10 | N#CC(CC(F)(F)F)NC(=O)[C@@H]1CC(F)(F)CC[C@H]1c1nn2ccccc2c1-c1ccc(N2CCS(=O)(=O)CC2)cc1 (single isomer, unassigned) [Example 75, (1R,2R)-N-((R or S)-1-cyano-3,3,3-trifluoropropyl)-2-(3-(4-(1,1-dioxidothiomorpholino)phen-yl)pyrazolo[1,5-a]pyridin-2-yl)-5,5-difluorocyclohexanecarbox-amide] | 21 nM | 0.99 nM
